Laboratory results reported in patent publication US11091451B2, “SHMT inhibitors and uses thereof” (Raze Therapeutics, Inc., priority 2016, dated 2021).

Experiments:
[1] = target: Human mitochondrial SHMT2 (Homo sapiens (Human), UniProt P34897); assay: SHMT2 activity inhibition assay (serine production from glycine and CH2-THF, mass spectroscopy); assay type: biochemical; conditions: 60 minutes at room temperature
Source text: (§1) Full length human cytosolic Serine Hydroxymethyl transferase 1 (SHMT1, residues 1-483 in Uniport ID P34896) was expressed as an N-terminal His6 tagged protein and purified in E. coli using nickel capture followed by size-exclusion chromatography. Human mitochondrial SHMT2 (residues 30-504 in Uniprot ID P34897) with mitochondrial leader sequence deleted was expressed as an N-terminal His6 tagged protein and purified in E. coli using nickel capture followed by size-exclusion chromatography.
Serine hydroxymethyltransferases catalyze the reversible hydroxymethylation of glycine to serine, with methylene tetrahydrofolate (CH2-THF) providing the additional carbon. SHMT1 and SHMT2 activity was determined by measuring serine production from glycine and CH2-THF using mass spectroscopy. Briefly, 15 ul of 0.5 mM glycine and 0.2 mM CH2-THF in 20 mM TEA, pH8.0, 0.2 mM NADPH were added to 384 well plate containing 0, 0.05 mM, 0.005 mM or 0.0005 mM of inhibitor. […] The plate was incubated for 60 minutes at room temperature and the reaction was quenched by the addition of 30 ul of 10% trichloroacetic acid. Serine produced was analyzed using Rapidfire 360 and API4000^+ in the positive ion mode.

[2] = target: human cytosolic Serine Hydroxymethyl transferase 1 (SHMT1) (Homo sapiens (Human), UniProt P34896); assay: SHMT1 activity inhibition assay (serine production from glycine and CH2-THF, mass spectroscopy); assay type: biochemical; conditions: 60 minutes at room temperature
Sequence of human cytosolic Serine Hydroxymethyl transferase 1 (SHMT1) (P34896 whole entry): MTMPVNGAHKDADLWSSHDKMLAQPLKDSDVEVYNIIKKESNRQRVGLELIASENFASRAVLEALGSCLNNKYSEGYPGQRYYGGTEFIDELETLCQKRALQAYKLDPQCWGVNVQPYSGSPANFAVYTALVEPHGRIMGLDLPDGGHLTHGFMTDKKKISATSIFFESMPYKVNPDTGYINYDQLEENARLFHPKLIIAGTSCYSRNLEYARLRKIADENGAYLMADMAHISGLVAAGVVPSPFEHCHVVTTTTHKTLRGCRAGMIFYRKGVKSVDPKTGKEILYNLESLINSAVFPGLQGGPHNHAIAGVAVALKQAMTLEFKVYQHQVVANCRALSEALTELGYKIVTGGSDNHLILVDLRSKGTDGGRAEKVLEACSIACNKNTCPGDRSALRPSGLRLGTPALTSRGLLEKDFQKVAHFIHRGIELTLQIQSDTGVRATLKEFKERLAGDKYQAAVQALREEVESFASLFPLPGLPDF
Source text: as §1
Serine hydroxymethyltransferases catalyze the reversible hydroxymethylation of glycine to serine, with methylene tetrahydrofolate (CH2-THF) providing the additional carbon. SHMT1 and SHMT2 activity was determined by measuring serine production from glycine and CH2-THF using mass spectroscopy. Briefly, 15 ul of 0.5 mM glycine and 0.2 mM CH2-THF in 20 mM TEA, pH8.0, 0.2 mM NADPH were added to 384 well plate containing 0, 0.05 mM, 0.005 mM or 0.0005 mM of inhibitor. 15 ul of SHMT1 or 2 were added to initiate the reaction. The plate was incubated for 60 minutes at room temperature and the reaction was quenched by the addition of 30 ul of 10% trichloroacetic acid. Serine produced was analyzed using Rapidfire 360 and API4000^+ in the positive ion mode.

Sequence of Human mitochondrial SHMT2 (P34897 30-504): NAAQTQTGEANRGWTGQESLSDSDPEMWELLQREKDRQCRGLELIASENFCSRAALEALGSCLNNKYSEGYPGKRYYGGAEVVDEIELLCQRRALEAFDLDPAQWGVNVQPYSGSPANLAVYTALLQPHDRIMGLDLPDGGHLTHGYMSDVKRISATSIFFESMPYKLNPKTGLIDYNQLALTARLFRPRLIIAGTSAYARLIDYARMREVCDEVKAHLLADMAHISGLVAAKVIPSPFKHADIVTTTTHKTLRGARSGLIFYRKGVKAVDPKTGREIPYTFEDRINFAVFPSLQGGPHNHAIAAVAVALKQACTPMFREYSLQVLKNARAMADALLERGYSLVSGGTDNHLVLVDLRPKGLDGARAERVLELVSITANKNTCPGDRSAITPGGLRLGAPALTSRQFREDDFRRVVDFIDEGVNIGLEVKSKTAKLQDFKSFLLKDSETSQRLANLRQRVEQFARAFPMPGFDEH

Row | Compound | IC50 [1] [µM] | IC50 [2] [µM]
1 | CSCC[C@H](NC(=O)Cc1csc(-c2ccc(Cl)cc2Cl)n1)C(=O)O [Compound I-48] | 100 to 500 | 100 to 500
2 | O=C(Cc1csc(-c2cccc(Cl)c2)n1)N[C@@H](Cc1c[nH]c2ccccc12)C(=O)O [Compound I-49] | 100 to 500 | 100 to 500
3 | O=C(O)CNC(=O)Cc1csc(-c2ccc(OC(F)(F)F)cc2)n1 [Compound I-50] | 100 to 500 | 100 to 500
4 | CC(C)c1ccc(-c2nc(CC(=O)N[C@@H](Cc3c[nH]c4ccccc34)C(=O)O)cs2)cc1 [Compound I-51] | 100 to 500 | 100 to 500
5 | O=C(Cc1csc(-c2cccc(Br)c2)n1)N[C@@H](Cc1ccccc1)C(=O)O [Compound I-52] | 100 to 500 | 100 to 500
6 | CC(C)c1ccc(-c2nc(CC(=O)N[C@@H](C(=O)O)c3ccccc3)cs2)cc1 [Compound I-54] | 100 to 500 | 100 to 500
7 | O=C(Cc1csc(-c2ccc(Cl)cc2Cl)n1)N[C@@H](C(=O)O)c1ccccc1 [Compound I-55] | 100 to 500 | 100 to 500
8 | CC(C)c1ccc(-c2nc(CC(=O)N[C@@H](Cc3ccccc3)C(=O)O)cs2)cc1 [Compound I-56] | 100 to 500 | 100 to 500
9 | COc1ccccc1-c1nc(CC(=O)N[C@@H](C)C(=O)O)cs1 [Compound I-57] | 10 to 100 | 100 to 500
10 | CC(C)[C@H](NC(=O)Cc1csc(-c2ccc(Cl)cc2Cl)n1)C(=O)O [Compound I-58] | 100 to 500 | 100 to 500
11 | O=C(O)CNC(=O)Cc1csc(-c2cccc(Cl)c2Cl)n1 [Compound I-59] | 100 to 500 | 100 to 500
12 | O=C(Cc1csc(-c2cccc(Br)c2)n1)NC(Cc1ccccc1)C(=O)O (stereo not shown) [Compound I-60] | 100 to 500 | 100 to 500
13 | COc1ccccc1-c1nc(CC(=O)NC(C)C(=O)O)cs1 (stereo not shown) [Compound I-61] | 10 to 100 | 100 to 500
14 | O=C(O)CNC(=O)Cc1csc(-c2ccc3c(c2)OCCO3)n1 [Compound I-62, 2-[2-[2-(2,3-dihydro-1,4-benzodioxin-6-yl)-1,3-thiazol-4-yl]acetamido]acetic Acid] | 100 to 500 | 100 to 500
15 | O=C(Cc1csc(-c2ccc(Cl)cc2)n1)N[C@@H](C(=O)O)c1ccccc1 [Compound I-63] | 100 to 500 | 100 to 500
16 | CC(C)(C(=O)NCC(=O)O)c1csc(-c2ccc(Cl)cc2Cl)n1 [Compound I-64, 2-[2-[2-(2,4-dichlorophenyl)-1,3-thiazol-4-yl]-2-methylpropanamido]acetic Acid] | 100 to 500 | 100 to 500
17 | NC(=O)Cc1cc(Cl)ccc1-c1nc(CC(=O)NCC(=O)O)cs1 [Compound I-65, 2-(2-[2-[2-(carbamoylmethyl)-4-chlorophenyl]-1,3-thiazol-4-yl]acetamido)acetic Acid] | 100 to 500 | 100 to 500
18 | O=C(O)CNC(=O)C(c1ccccc1)c1csc(-c2ccc(Cl)cc2Cl)n1 (stereo not shown) [Compound I-66] | > 500 | 100 to 500
19 | CC[C@@H](C)[C@H](NC(=O)Cc1csc(-c2ccc(Cl)cc2Cl)n1)C(=O)O [Compound I-67] | 100 to 500 | 100 to 500
20 | O=C(Cc1csc(-c2cccc(Cl)c2)n1)N[C@@H](Cc1ccccc1)C(=O)O [Compound I-68] | 100 to 500 | 100 to 500
21 | O=C(Cc1csc(-c2ccccc2Cl)n1)N[C@@H](Cc1ccccc1)C(=O)O [Compound I-69] | 100 to 500 | 100 to 500
22 | O=C(O)CNC(=O)Cc1csc(-c2ccc(Cl)cc2CCO)n1 [Compound I-70, 2-(2-[2-[4-chloro-2-(2-hydroxyethyl)phenyl]-1,3-thiazol-4-yl]acetamido) acetic Acid] | 100 to 500 | 100 to 500
23 | C[C@H](NC(=O)Cc1csc(-c2ccccc2F)n1)C(=O)O [Compound I-71] | 100 to 500 | 100 to 500
